Reference: US20110105509A1 (Wyeth, LLC, priority 2009, published 2011)

These molecules were tested against T1, CRTH2 (Homo sapiens, UniProt Q9Y5Y4) (assay: FRET based competitive immunoassay (cAMP) in CRTH2 expressing CHO cells). Conditions: CRTH2 expressing CHO cells incubated with forskolin and PGD2; Eu3+ cryptate-labeled anti-cAMP and d2-labeled cAMP.
T1 construct: expressed in transfected cells; host or cells: CHO cells
T1 sequence (Q9Y5Y4 1-395): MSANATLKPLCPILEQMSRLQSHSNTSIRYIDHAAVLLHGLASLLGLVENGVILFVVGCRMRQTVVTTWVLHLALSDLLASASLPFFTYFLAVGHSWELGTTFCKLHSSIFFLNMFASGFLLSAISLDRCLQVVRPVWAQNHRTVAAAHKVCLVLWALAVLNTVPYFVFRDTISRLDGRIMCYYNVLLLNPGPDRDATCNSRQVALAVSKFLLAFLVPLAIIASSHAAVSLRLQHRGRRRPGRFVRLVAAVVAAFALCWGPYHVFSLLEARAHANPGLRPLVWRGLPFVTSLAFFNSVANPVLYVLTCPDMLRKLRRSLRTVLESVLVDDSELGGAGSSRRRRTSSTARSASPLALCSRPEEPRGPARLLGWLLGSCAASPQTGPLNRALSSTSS
Format: cell-based
Method: FRET Assay: To evaluate potency compounds were tested in a FRET based competitive immunoassay in which CRTH2 expressing CHO cells were incubated in the presence of forskolin and PGD2 along with Eu3+ cryptate-labeled anti-cAMP and d2-labeled cAMP.

| IC50 | SMILES |
| --- | --- |
| 9 nM | Cc1c(-c2nn(Cc3cc(F)ccc3F)c(=O)c3ccccc23)c2cc(F)ccc2n1CC(=O)O [Example 62, 2-(3-(3-(2,5-difluorobenzyl)-4-oxo-3,4-dihydrophthalazin-1-yl)-5-fluoro-2-methyl-1H-indol-1-yl)acetic acid] |
| 15 nM | Cc1c(-c2nn(Cc3cc(F)c(F)cc3F)c(=O)c3ccccc23)c2cc(F)ccc2n1CC(=O)O [Example 63, 2-(5-fluoro-2-methyl-3-(4-oxo-3-(2,4,5-trifluorobenzyl)-3,4-dihydro-phthalazin-1-yl)-1H-indol-1-yl)acetic acid] |
| 9 nM | Cc1c(-c2nn(Cc3ccc(F)cc3F)c(=O)c3ccccc23)c2cc(F)ccc2n1CC(=O)O [Example 64, 2-(3-(3-(2,4-difluorobenzyl)-4-oxo-3,4-dihydrophthalazin-1-yl)-5-fluoro-2-methyl-1H-indol-1-yl)acetic acid] |
| 18 nM | Cc1c(-c2nn(Cc3ccc(S(C)(=O)=O)cc3)c(=O)c3ccccc23)c2cc(F)ccc2n1CC(=O)O [Example 65, 2-(5-fluoro-2-methyl-3-(3-(4-(methylsulfonyl)benzyl)-4-oxo-3,4-dihydro-phthalazin-1-yl)-1H-indol-1-yl)acetic acid] |
| 143 nM | Cc1c(-c2ccc(=O)n(Cc3ccc(S(C)(=O)=O)cc3)n2)c2cc(Cl)ccc2n1CC(=O)O [Example 66, 2-(5-chloro-2-methyl-3-(1-(4-(methylsulfonyl)benzyl)-6-oxo-1,6-dihydropyridazin-3-yl)-1H-indol-1-yl)acetic acid] |
| 23 nM | Cc1c(-c2ccc(=O)n(Cc3cc(F)ccc3F)n2)c2cc(Cl)ccc2n1CC(=O)O [Example 67, 2-(5-chloro-3-(1-(2,5-difluorobenzyl)-6-oxo-1,6-dihydropyridazin-3-yl)-2-methyl-1H-indol-1-yl)acetic acid] |
| 10 nM | Cc1c(-c2ccc(=O)n(Cc3ccc(F)cc3F)n2)c2cc(Cl)ccc2n1CC(=O)O [Example 68, 2-(5-chloro-3-(1-(2,4-difluorobenzyl)-6-oxo-1,6-dihydropyridazin-3-yl)-2-methyl-1H-indol-1-yl)acetic acid] |
| 7 nM | Cc1c(-c2ccc(=O)n(Cc3cc(F)c(F)cc3F)n2)c2cc(Cl)ccc2n1CC(=O)O [Example 69, 2-(5-chloro-2-methyl-3-(6-oxo-1-(2,4,5-trifluorobenzyl)-1,6-dihydropyridazin-3-yl)-1H-indol-1-yl)acetic acid] |
| 16 nM | Cc1c(-c2ccc(=O)n(Cc3cc(F)c(F)cc3F)n2)c2cc(F)ccc2n1CC(=O)O [Example 70, 2-(5-fluoro-2-methyl-3-(6-oxo-1-(2,4,5-trifluorobenzyl)-1,6-dihydro-pyridazin-3-yl)-1H-indol-1-yl)acetic acid] |
| 17 nM | Cc1c(-c2ccc(=O)n(Cc3ccc(F)cc3F)n2)c2cc(F)ccc2n1CC(=O)O [Example 71, 2-(3-(1-(2,4-difluorobenzyl)-6-oxo-1,6-dihydropyridazin-3-yl)-5-fluoro-2-methyl-1H-indol-1-yl)acetic acid] |
| 43 nM | Cc1c(-c2ccc(=O)n(Cc3cc(F)ccc3F)n2)c2cc(F)ccc2n1CC(=O)O [Example 72, 2-(3-(1-(2,5-Difluorobenzyl)-6-oxo-1,6-dihydropyridazin-3-yl)-5-fluoro-2-methyl-1H-indol-1-yl)acetic acid] |
| 76 nM | Cc1c(-c2ccc(=O)n(Cc3ccc(S(C)(=O)=O)cc3)n2)c2cc(F)ccc2n1CC(=O)O [Example 73, 2-(5-fluoro-2-methyl-3-(1-(4-(methylsulfonyl)benzyl)-6-oxo-1,6-dihydro-pyridazin-3-yl)-1H-indol-1-yl)acetic acid] |
| 2 nM | Cc1c(Cc2ccc(=O)n(Cc3ccccc3F)n2)c2ccccc2n1CC(=O)O [Example 74, 2-(3-((1-(2-fluorobenzyl)-6-oxo-1,6-dihydropyridazin-3-yl)methyl)-2-methyl-1H-indol-1-yl)acetic acid] |
| 101 nM | Cc1c(Cc2ccc(=O)n(Cc3cccc(F)c3)n2)c2ccccc2n1CC(=O)O [Example 75, 2-(3-((1-(3-fluorobenzyl)-6-oxo-1,6-dihydropyridazin-3-yl)methyl)-2-methyl-1H-indol-1-yl)acetic acid] |
| 16 nM | Cc1c(Cc2ccc(=O)n(Cc3ccc(F)cc3)n2)c2ccccc2n1CC(=O)O [Example 76, 2-(3-((1-(4-fluorobenzyl)-6-oxo-1,6-dihydropyridazin-3-yl)methyl)-2-methyl-1H-indol-1-yl)acetic acid] |
| 32 nM | Cc1c(Cc2ccc(=O)n(Cc3ccccc3)n2)c2ccccc2n1CC(=O)O [Example 77, 2-(3-((1-Benzyl-6-oxo-1,6-dihydropyridazin-3-yl)methyl)-2-methyl-1H-indol-1-yl)acetic acid] |
| 2 nM | Cc1c(CC2=NN(Cc3ccccc3)C(=O)CC2)c2cc(F)ccc2n1CC(=O)O [Example 78, 2-(3-((1-Benzyl-6-oxo-1,4,5,6-tetrahydropyridazin-3-yl)methyl)-5-fluoro-2-methyl-1H-indol-1-yl)acetic acid] |
| 22 nM | Cc1c(Cc2ccc(=O)n(Cc3cccc(F)c3F)n2)c2ccccc2n1CC(=O)O [Example 79, 2-(3-((1-(2,3-difluorobenzyl)-6-oxo-1,6-dihydropyridazin-3-yl)methyl)-2-methyl-1H-indol-1-yl)acetic acid] |
| 16 nM | Cc1c(Cc2ccc(=O)n(Cc3ccccc3)n2)c2cc(Cl)ccc2n1CC(=O)O [Example 80, 2-(3-((1-Benzyl-6-oxo-1,6-dihydropyridazin-3-yl)methyl)-5-chloro-2-methyl-1H-indol-1-yl)acetic acid] |
| 23 nM | Cc1c(Cc2ccc(=O)n(Cc3ccc(C(F)(F)F)cc3)n2)c2cc(Cl)ccc2n1CC(=O)O [Example 81, 2-(5-Chloro-2-methyl-3-((6-oxo-1-(4-(trifluoromethyl)benzyl)-1,6-dihydropyridazin-3-yl)-methyl)-1H-indol-1-yl)acetic acid] |
| 16 nM | Cc1c(Cc2ccc(=O)n(Cc3ccc(C(F)(F)F)cc3)n2)c2cc(F)ccc2n1CC(=O)O [Example 82, 2-(5-fluoro-2-methyl-3-((6-oxo-1-(4-(trifluoromethyl)benzyl)-1,6-dihydro-pyridazin-3-yl)methyl)-1H-indol-1-yl)acetic acid] |
| 62 nM | Cc1c(Cc2cn(Cc3ccccc3)c(=O)c3ccccc23)c2cc(F)ccc2n1CC(=O)O [Example 85, 2-(3-((2-benzyl-1-oxo-1,2-dihydroisoquinolin-4-yl)methyl)-5-fluoro-2-methyl-1H-indol-1-yl)acetic acid] |
| 197 nM | Cc1c(Cc2cn(Cc3ccccc3)c(=O)c3ccccc23)c2ccccc2n1CC(=O)O [Example 86, 2-(3-((2-benzyl-1-oxo-1,2-dihydroisoquinolin-4-yl)methyl)-2-methyl-1H-indol-1-yl)acetic acid] |
| 210 nM | Cc1c(Cc2cn(Cc3ccccc3)c(=O)c3ccccc23)c2cc(Cl)ccc2n1CC(=O)O [Example 87, 2-(3-((2-benzyl-1-oxo-1,2-dihydroisoquinolin-4-yl)methyl)-5-chloro-2-methyl-1H-indol-1-yl)acetic acid] |

| SMILES | IC50 |
| --- | --- |
| Cc1c(Cc2nn(Cc3ccccc3)c(=O)c3ccccc23)c2cc(Cl)ccc2n1CC(=O)O [Example 84, 2-(3-((3-Benzyl-4-oxo-3,4-dihydrophthalazin-1-yl)methyl)-5-chloro-2-methyl-1H-indol-1-yl)acetic acid] | 28 nM |
